Where two headings read alike, the source gives them in different places.
Key:
Assay type in all cases: cell-based
PANC 05.04 = assay: In vitro cytotoxicity on pancreatic cancer cell line (Example 12); conditions: PANC 05.04 human pancreatic cancer cell line
HCT 116 cells = assay: In vitro cytotoxicity, CellTiter-Glo, 72 h (Example 11)
Protocol: Alternatively, the in vitro cytotoxicity of the compounds of the invention may be measured as described in this example. 180 μl of HCT 116 cells (ATCC, Cat # CCL-247) in McCoy's 5a Medium Modified (Sigma-Aldrich®, St. Louis, Mo.)+10% fetal bovine serum were seeded at a density of 5,000 cells/well in a white opaque 96-well plate and incubated for 24 hours at […] in a 5% CO2 incubator. Twenty-four hours post cell seeding, 20 μl of 100× test compounds were diluted such that the final concentrations of the test compounds were in μM concentration. Half log dilutions were used, starting from 10 μM through 0.0001 μM. Puromycin and […]. The cells were incubated with the compounds for 72 hours at […] in a 5% CO2 incubator. After 72 hrs, 100 μl/well of CellTiter-Glo® Luminescent Cell Viability Assay reagent (Promega, Inc., Madison, Wis.; Cat. # G7573) was added to the plates and incubated at room temperature for 30 minutes. The luminescence signals were captured using EnVision 2105 Multimode Plate Reader (PerkinElmer, Waltham, Mass.). The data were analyzed using non-linear regression curve fit (sigmoidal dose response) in GraphPad Prism software (GraphPad Software, La Jolla, Calif.) by plotting the concentration of drug on the X-axis and the mean % inhibition values on the Y-axis.

PANC 10.05 = assay: In vitro cytotoxicity on pancreatic cancer cell line (Example 12); conditions: PANC 10.05 human pancreatic cancer cell line
K562 = assay: In vitro cytotoxicity of toxin compounds (Example 12, Table 4); conditions: Homo sapiens
Protocol: (§1) Various cancer cell lines were obtained from the American Type Culture Collection (ATCC®). The cells were cultured in a humidified 5% CO2 incubator in a media consisting of RPMI 1640, L-glutamine, and 10% FBS. The cells were passaged as needed using standard tissue culture techniques. The cells were harvested and plated out into 96-well tissue culture treated plates at a density of 5000 cells per well. After allowing the cells to equilibrate for ˜24 hr in a humidified 5% CO2 incubator, the cells were treated with the test compounds at the indicated concentrations. The cells were exposed to the test compounds for three days with no media change. After the treatment period, CellTiter-Glo® Luminescent Cell Viability Assay reagent solution (Promega, Inc., Madison, Wis.; Cat. # G7573) was introduced to each well. The Cell TiterGlo-containing plates were then read on a SpectroMax® iD3 Multi-Mode Microplate reader (Molecular Devices, LLC, San Jose, Calif.). The degree of luminescence was dictated by the abundance of live cells.
(§2) Table 4 gives the cytotoxicity data for Compounds 2, 4, and 6 on the indicated cancer cell lines, HL60, KG-1, NCI-H69, SK-MEL-1, HEL-92.1.7, and K562 (ATCC designations).

NCI-H69 = assay: as above; conditions: Homo sapiens
Protocol: as §1, §2

HL60 = assay: as above; conditions: Homo sapiens, HL-60
Protocol: as §1, §2

SK-MEL-1 = assay: as above; conditions: Homo sapiens
Protocol: as §1, §2

HEL-92.1.7 = assay: as above; conditions: Homo sapiens
Protocol: as §1, §2

N87 = assay: In vitro cytotoxicity of toxin compounds, CellTiter-Glo, three days (Example 12); conditions: 72 h
Protocol: as §1
(§3) The following tables summarize the cytotoxicity (IC50), nM, observed for the specified toxin compounds on the indicated cancer cell lines, NCI-H23, DU145, SW480, SKOV3, A549, HT29, SK-MES-1, SKBR3, HCT116, MCF7, N87, and A431 (ATCC designations).

SKBR3 = assay: as above; conditions: Homo sapiens, SK-BR-3, 72 h
Protocol: as §1, §3

SK-MES-1 = assay: as above; conditions: Homo sapiens, 72 h; SK-MES-1, three days
Protocol: as §1, §3

MCF7 = assay: as above; conditions: Homo sapiens, 72 h
Protocol: as §1, §3

SW480 = assay: as above; conditions: Homo sapiens, 72 h
Protocol: as §1, §3

NCI-H23 = assay: as above; conditions: Homo sapiens, 72 h
Protocol: as §1, §3

A431 = assay: as above; conditions: Homo sapiens, A-431, 72 h
Protocol: as §1, §3

SKOV3 = assay: as above; conditions: Homo sapiens, SK-OV-3, 72 h
Protocol: as §1, §3

DU145 = assay: as above; conditions: Homo sapiens, DU-145, 72 h
Protocol: as §1, §3

A549 = assay: as above; conditions: Homo sapiens, 72 h
Protocol: as §1, §3

HT29 = assay: as above; conditions: Homo sapiens, HT-29, 72 h
Protocol: as §1, §3

HCT116 = assay: as above; conditions: Homo sapiens, HCT-116, 72 h
Protocol: as §1, §3

Structure (SMILES)	IC50 (PANC 05.04) [nM]	IC50 (HCT 116 cells; Homo sapiens, HCT-116, 72 h) [nM]	IC50 (PANC 10.05; Panc1005) [nM]	IC50 (K562) [nM]	IC50 (NCI-H69) [nM]	IC50 (HL60) [nM]	IC50 (SK-MEL-1) [nM]	IC50 (N87) [nM]	IC50 (SKBR3) [nM]	IC50 (SK-MES-1) [nM]	IC50 (MCF7) [nM]	IC50 (SW480) [nM]	IC50 (NCI-H23) [nM]	IC50 (A431) [nM]	IC50 (SKOV3) [nM]	IC50 (DU145) [nM]	IC50 (A549) [nM]	IC50 (HT29) [nM]	IC50 (HCT116) [nM]	other results
COC(=O)C[C@@H]1C[C@@]2(CO2)[C@H](O)[C@@H](/C=C/C(C)=C/C[C@@H]2O[C@H](C)[C@H](NC(=O)/C=C\C(C)OC(=O)c3ccccc3)C[C@@H]2C)O1 (stereo partly drawn) [Compound 1, (Z)-5-((2R, 3R, 5S, 6S)-6-((2E, 4E)-5-((3R, 4R, 5R, 7S)-4-hydroxy-7-(2-methoxy-2-oxoethyl)-1,6-dioxaspiro[2.5]octan-5-yl)-3-methylpenta-2,4-dienyl)-2,5-dimethyltetrahydro-2H-pyran-3-ylamino)-5-oxopent-3-en-2-yl benzoate]	22	19	65	–	–	–	–	–	–	–	–	–	–	–	–	–	–	–	–	–
COC(=O)C[C@@H]1C[C@@]2(CO2)[C@H](O)[C@@H](/C=C/C(C)=C/C[C@@H]2O[C@H](C)[C@H](NC(=O)/C=C\C(C)OC(=O)c3ccc(F)cc3)C[C@@H]2C)O1 (stereo partly drawn) [Compound 2, (Z)-5-((2R, 3R, 5S, 6S)-6-((2E, 4E)-5-((3R, 4R, 5R, 7S)-4-hydroxy-7-(2-methoxy-2-oxoethyl)-1,6-dioxaspiro[2.5]octan-5-yl)-3-methylpenta-2,4-dienyl)-2,5-dimethyltetrahydro-2H-pyran-3-ylamino)-5-oxopent-3-en-2-yl 4-fluorobenzoate]	2	7	21	0.58	0.96	0.08	3.26	14.9	166	113	32.4	20.2	1.3	9.1	57.2	27.5	38.3	22.5	8.9	IC50 (HEL-92.1.7): 0.71 nM
COC(=O)C[C@@H]1C[C@@]2(CO2)[C@H](O)[C@@H](/C=C/C(C)=C/C[C@@H]2O[C@H](C)[C@H](NC(=O)/C=C\C(C)n3nc(C)nc3C)C[C@@H]2C)O1 (stereo partly drawn) [Compound 3, Methyl 2-((3R, 5S, 7R, 8R)-7-((1E, 3E)-5-((2S, 3S, 5R, 6R)-5-((Z)-4-(3,5-dimethyl-1H-1,2,4-triazol-1-yl)pent-2-enamido)-3,6-dimethyltetrahydro-2H-pyran-2-yl)-3-methylpenta-1,3-dienyl)-8-hydroxy-1,6-dioxaspiro[2.5]octan-5-yl)acetate]	435	390	> 2000	–	–	–	–	–	–	–	–	–	–	–	–	–	–	–	–	–
COC(=O)C[C@@H]1C[C@@]2(CO2)[C@H](O)[C@@H](/C=C/C(C)=C/C[C@@H]2O[C@H](C)[C@H](NC(=O)/C=C\C(C)c3ccon3)C[C@@H]2C)O1 (stereo partly drawn) [Compound 4, Methyl 2-((3R, 5S, 7R, 8R)-8-hydroxy-7-((1E, 3E)-5-((2S,3S,5R,6R)-5-((Z)-4-(isoxazol-3-yl)pent-2-enamido)-3,6-dimethyltetrahydro-2H-pyran-2-yl)-3-methylpenta-1,3-dien-1-yl)-1,6-dioxaspiro[2.5]octan-5-yl)acetate]	4	330	7.19	0.11	0.63	0.05	0.42	1.6	9.5	7.5	2.1	2.2	0.2	0.7	6.7	1.9	2.8	1.3	1	–
COC(=O)C[C@@H]1C[C@@]2(CO2)[C@H](O)[C@@H](/C=C/C(C)=C/C[C@@H]2O[C@H](C)[C@H](NC(=O)/C=C\C(C)c3cc(OC)no3)C[C@@H]2C)O1 (stereo partly drawn) [Compound 5, Methyl 2-((3R, 5S, 7R, 8R)-8-hydroxy-7-((1E, 3E)-5-((2S, 3S, 5R, 6R)-5-((Z)-4-(3-methoxyisoxazol-5-yl)pent-2-enamido)-3,6-dimethyltetrahydro-2H-pyran-2-yl)-3-methylpenta-1,3-dienyl)-1,6-dioxaspiro[2.5]octan-5-yl)acetate]	12	–	–	–	–	–	–	–	–	–	–	–	–	–	–	–	–	–	–	IC50 (HCT 116 cells; HCT 116 cells, 72 hours, read-out: IC50): 310 nM; IC50 (PANC 10.05): 19.9 nM
COC(=O)C[C@@H]1C[C@@]2(CO2)[C@H](O)[C@@H](/C=C/C(C)=C/C[C@@H]2O[C@H](C)[C@H](NC(=O)/C=C\C(C)c3noc(C)n3)C[C@@H]2C)O1 (stereo partly drawn) [Compound 6, Methyl 2-((3R, 5S, 7R, 8R)-7-((1E, 3E)-5-((2S, 3S, 5R, 6R)-3,6-dimethyl-5-((Z)-4-(5-methyl-1,2,4-oxadiazol-3-yl)pent-2-enamido)tetrahydro-2H-pyran-2-yl)-3-methylpenta-1,3-dienyl)-8-hydroxy-1,6-dioxaspiro[2.5]octan-5-yl)acetate]	7	20	10.3	0.09	0.21	0.04	0.78	1.4	12.3	9.3	3.8	2.7	0.4	1.8	9.7	3.3	4.8	2.7	2	IC50 (HEL-92.1.7): 0.03 nM
COC(=O)C[C@@H]1C[C@@]2(CO2)[C@H](O)[C@@H](/C=C/C(C)=C/C[C@@H]2O[C@H](C)[C@H](NC(=O)/C=C\C(C)COC3(C)COC3)C[C@@H]2C)O1 (stereo partly drawn) [Compound 7, Methyl 2-((3R, 5S, 7R, 8R)-7-((1E, 3E)-5-((2S, 3S, 5R, 6R)-3,6-dimethyl-5-((Z)-4-methyl-5-((3-methyloxetan-3-yl)oxy)pent-2-enamido)tetrahydro-2H-pyran-2-yl)-3-methylpenta-1,3-dien-1-yl)-8-hydroxy-1,6-dioxaspiro[2.5]octan-5-yl)acetate]	22	300	98.4	–	–	–	–	–	–	–	–	–	–	–	–	–	–	–	–	–
COc1ccc(C[C@H](N)C(=O)N[C@H]2[C@@H](O)[C@H](n3cnc4c(N(C)C)ncnc43)O[C@@H]2CO)cc1 [Puromycin, reference compound]	–	–	–	–	–	–	–	–	–	–	–	–	–	–	–	–	–	–	–	IC50 (HCT 116 cells; Homo sapiens, HCT 116 cells, 72 hours, read-out: IC50): ~250 nM

Reference: patent US10815246B2, “Thailanstatin analogs” (priority 2017, dated 2020)
